Experimental data taken from BindingDB's records for doi:10.1016/S0960-894X(97)00408-3 (1997).

Target: 5-hydroxytryptamine receptor 4 (Rattus norvegicus, UniProt Q62758)
Assay: Agonist activity against serotonin 5-HT4 receptor in rat tunica muscularis mucosae assay

Sequence of 5-hydroxytryptamine receptor 4 (Q62758 whole entry): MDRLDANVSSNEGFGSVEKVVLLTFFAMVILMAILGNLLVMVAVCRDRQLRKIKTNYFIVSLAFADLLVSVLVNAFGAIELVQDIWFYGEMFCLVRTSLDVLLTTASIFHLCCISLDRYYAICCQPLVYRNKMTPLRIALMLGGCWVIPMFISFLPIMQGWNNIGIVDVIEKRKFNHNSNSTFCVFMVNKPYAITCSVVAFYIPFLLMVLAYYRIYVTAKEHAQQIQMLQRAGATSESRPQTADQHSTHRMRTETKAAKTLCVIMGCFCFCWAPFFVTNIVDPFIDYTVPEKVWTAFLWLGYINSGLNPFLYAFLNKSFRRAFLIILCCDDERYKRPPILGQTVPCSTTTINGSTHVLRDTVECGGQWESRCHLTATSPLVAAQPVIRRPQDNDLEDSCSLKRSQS

| Structure (SMILES) | EC50 [nM] |
| --- | --- |
| COc1cc(N)c(Cl)cc1C(=O)NC1C2CC3CC1CN3C2 (configuration not stated) [4-Amino-N-(3-aza-tricyclo[3.3.1.0*3,7*]non-9-yl)-5-chloro-2-methoxy-benzamide] | 382 |
| COc1cc(N)c(Cl)cc1C(=O)NCC1C2CC3CC1CN3C2 (configuration not stated) [4-Amino-N-(3-aza-tricyclo[3.3.1.0*3,7*]non-9-ylmethyl)-5-chloro-2-methoxy-benzamide] | 660 |
